Source: patent US12551533B2, “Intranasal neuropeptides for use in stress-related impairments” (New York Medical College, priority 2019, dated 2026)
Entries after “also recorded” stand apart in the source; their conditions may differ.

Assays:
[1] = system: Single Prolonged Stress (SPS) model of PTSD; assay: Forced Swim Test (FST) 12 days after SPS stressors, early intervention with intranasal peptide; format: in vivo; settings: intranasal 150 μg/rat immediately after SPS, vs SPS/V
Protocol: (§1) After 7 days, the animals were tested on the elevated plus maze (EPM) for 5 min for various features of anxiety and locomotion and 5 days later for depressive/despair symptoms on the Forced Swim Tet (FST).
The immobility time on the FST, which reflects depressive-lie behavior, despair or altered coping style was determined.
(§2) After a two week accommodation period rats were exposed to SPS stressors. […] Control unstressed rats were handled briefly and weighed on the same day. They were left undisturbed for a week and then tested for anxiety on Elevated Plus Maze (EPM) together with unstressed control rats. Five days later all the animals were tested for depresssive/dispair behavior by the Forced Swim Test (FST).

[2] = system: Single Prolonged Stress (SPS) model of PTSD; assay: Social interaction test with juvenile rat, three weeks after SPS stressors; format: in vivo; settings: intranasal NPY 200 μg or D-H 150 μg per rat immediately after SPS; SI 7 days after the EPM
Protocol: (§3) FIG. 6 depicts a diagram of the experimental procedure (FIGS. 7-8). […] After two weeks the animals were tested on the elevated plus maze (EPM) for 5 min and 7 days later for social interaction (SI).
(§4) The experimental design was as depicted in FIG. 6. […] After two weeks they were tested on the elevated plus maze (EPM) for 5 min and 7 days later for social interaction (SI).

[3] = system: Single Prolonged Stress (SPS) model of PTSD; assay: Elevated plus maze (EPM) two weeks after SPS stressors, early intervention with intranasal peptide; format: in vivo; settings: intranasal NPY 200 μg or D-H 150 μg per rat immediately after SPS
Protocol: as §3, §4

[4] = system: Single Prolonged Stress (SPS) model of PTSD; assay: EPM after intranasal treatment given 2 weeks after SPS (reversal of manifested symptoms); format: in vivo; settings: intranasal 300 μg/rat given 2 weeks after SPS; EPM four days later; vs SPS/V
Description: FIG. 9A. Scheme of the experiment; FIG. 9B. Duration in the closed arms, an indication of anxiety; FIG. 9C. Anxiety index. *p<0.05, ***p<0.001.

[5] = system: Single Prolonged Stress (SPS) model of PTSD; assay: Elevated plus maze (EPM) one week after SPS stressors, early intervention with intranasal peptide; format: in vivo, rat
Protocol: as §1
Based on the performance on the EPM the anxiety index was calculated for each rat. […] (FIG. 2B)
as §2
Based on the performance on the EPM the anxiety index was calculated for each rat. The anxiety index=1−[(time spent in open arm/total time on the maze)/2+(number of entries to the open arms/total exploration on the maze)/2] and is shown in FIG. 2. […] Each point represents the values for an individual animal.

[6] = system: SPS elicited development of depressive symptoms; settings: intranasal infusion after traumatic stress; cited from earlier work
[7] = intranasal 150 μg/rat immediately after SPS, one week after SPS
[8] = intranasal 150 μg/rat immediately after SPS, one week after SPS, listed as [D-^26His]NPY

Substance | immobility time in the Forced Swim Test ([1]; listed as D-H) | immobility time in the Forced Swim Test ([1]; listed as DH) | interaction time on the social interaction test [2] | number of approaches on the social interaction test [2] | entries and duration in the open arms of the EPM [3] | duration in the closed arms of the EPM [4] | distance travelled on the EPM (locomotion) [5, 7] | duration of head dips on the EPM [5, 7] | frequency of head dips on the EPM [5, 7] | duration of head dips on the EPM [5, 8] | frequency of head dips on the EPM [5, 8] | development of depressive-like symptoms after traumatic stress [6] | SPS elicited anxiety (anxiety index on the EPM, FIG. 2B) ([5]; intranasal, at a concentration which prevents SPS elicited depressive symptoms, seven days after SPS)
[D^26-His]NPY [[D^26His]NPY] | superior to NPY | reduced; also recorded: significantly more effective than NPY | prevented | prevented | as effective as NPY | less time in the closed arms | did not reduce the distance traveled | prevent the SPS triggered reduction; also recorded: more effective than NPY | prevent the SPS triggered reduction; also recorded: more effective than NPY | recovered | recovered |  | 
[Leu^31Pro^34]NPY [reference compound] |  |  |  |  |  |  |  |  |  |  |  | prevented development of depressive-like symptoms | did not reduce the SPS elicited anxiety; also recorded: ineffective
